Source: patent US20140343001A1, “INDOLE DERIVATIVES INHIBITORS OF ENZYME LACTATE DEHYDROGENASE (LDH)” (Universitá di Pisa, priority 2011, published 2014)

Columns and labels:
hLDH5 (LDH-A) = biological target: T1, hLDH5 (LDH-A) (Homo sapiens, UniProt P00338); test: Enzyme inhibition of human lactate dehydrogenase isoform 5; type: biochemical; conditions: ranges of values, pH 7.4; for Ki: 37° C., read-out: inhibitory activity against hLDH5 (Ki); for IC50: room temperature, read-out: inhibitory activity against hLDH5 (IC50)
T1 construct: purchased LEEBIO (USA)
Experimental: The compounds described in the examples were evaluated in enzymatic assays to assess its inhibitory properties against two human isoforms of lactate dehydrogenase, hLDH5 containing solely the subunit LDH-A (LEEBIO—USA), and the hLDH1 containing only the LDH subunits-B (Sigma Aldrich, USA), in order to verify the selectivity of these compounds.
(for Ki measurements). Such assays were conducted in cells containing 200 μL of a solution comprising the reagents dissolved in phosphate buffer (KH2PO4 and K2HPO4) at pH 7.4.
IC50 values were calculated as described below. […] Seven different concentrations (in duplicate for each concentration) of compound were used to generate a concentration-response curve. […] Compound solutions were dispensed in 96-well plates (8 μL), then substrate and cofactor dissolved in buffer (152 μl) and enzyme solution (40 μl) were finally added. Dilution of the enzyme stock solution was made to allow a 10% consumption of the cofactor after 15 min. The eventual background fluorescence of the tested compounds or quenching of the NADH fluorescence by the tested compounds was subtracted. In addition to the compound test wells, each plate contained maximum and minimum controls. Assay plates were incubated at room temperature for 15 min and the final measurements were performed using Victor X3 Microplates reader (PerkinElmer®) at a fluorescence emission wavelength of 460 nm (excitation at 340 nm). IC50 were generated using the curve-fitting tool of GraphPad Prism].
The resulting data of enzymatic kinetic (the constants of Michaelis-Menten) were determined by analysis of non-linear regression.

A549 cells = test: Inhibition of tumor cell growth method (b), CellTiter-Glo; type: cell-based; conditions: Homo sapiens, A549, 72 h
Excerpt: (§1) CellTiter-Glo® Luminescent Cell Viability Assay (Promega) is a homogeneous method of determining the number of viable cells in culture based on quantitation of the present ATP, which indicates the presence of metabolically active cells. The homogeneous assay procedure involves addition of a single reagent (CellTiter-Glo® Reagent) directly to the cells, which leads to cell lysis and generation of a luminescent signal proportional to the amount of the ATP and the number of cells present in culture. The assay relies on the properties of a proprietary thermostable luciferase (Ultra-Glo® recombinant luciferase), which generates a luminescent signal.
(§2) After 72 h, a volume of CellTiter-Glo® Reagent equal to the volume of cell culture medium was added. The content was mixed for 2 min to induce cell lysis. The luminescence was recorded after further 10 min at RT in order to obtain a stable luminescent signal.
(§3) The IC50 was calculated using GraphPad Software.

H1975 = test: as above; type: cell-based; conditions: Homo sapiens, NCI-H1975, H1975, 72 h
Excerpt: as §1, §2, §3

HeLa cells = test: Determination of cellular production of lactate (GC/MS); type: cell-based; conditions: 8 hours, concentrations from 50 to 200 μM, comparable or superior to 2-DeoxGlu at 10 mM

CCOC(=O)c1cc2c(C(F)(F)F)cc(-c3ccc(Cl)cc3Cl)cc2n1O [Example 9, ethyl 6-(2,4-dichloropheyl)-1-hydroxy-4-(trifluoromethyl)-1H-indole-2-carboxylate]
Ki (hLDH5 (LDH-A)): 1 to 10 µM | IC50 (A549 cells): ≤ 31 µM | IC50 (H1975): ≤ 31 µM | reduction of cellular production of lactate (HeLa cells): reduce effectively cellular production of lactate

CC(C)OC(=O)c1cc2c(C(F)(F)F)cc(-c3ccc(Cl)cc3Cl)cc2n1O [Example 32, isopropyl 6-(2,4-dichlorophenyl)-1-hydroxy-4-(trifluoromethyl)-1H-indole-2-carboxylate]
Ki (hLDH5 (LDH-A)): 0.5 to 5 µM | IC50 (A549 cells): ≤ 31 µM | IC50 (H1975): ≤ 31 µM | reduction of cellular production of lactate (HeLa cells): reduce effectively cellular production of lactate

COC(=O)c1cc2c(C(F)(F)F)cc(-c3ccccc3)cc2n1O[C@H]1O[C@H](CO)[C@@H](O)[C@H](O)[C@@H]1O [Example 41, methyl 1-(α-d-mannopyranosyl)oxy-6-phenyl-4-(trifluoromethyl)-1H-indole-2-carboxylate]
reduction of cellular production of lactate (HeLa cells): reduce effectively cellular production of lactate

COC(=O)c1cc2c(C(F)(F)F)cc(-c3ccccc3OC(F)(F)F)cc2n1O [Example 34, methyl 1-hydroxy-6-(2-(trifluoromethoxy)phenyl)-4-(trifluoromethyl)-1H-indole-2-carboxylate]
Ki (hLDH5 (LDH-A)): 5 to 25 µM | IC50 (A549 cells): ≤ 31 µM | IC50 (H1975): ≤ 31 µM

O=C(O)c1cc2c(C(F)(F)F)cc(-c3cc(Cl)cc(Cl)c3)cc2n1O [Example 43, 6-(3,5-dichlorophenyl)-1-hydroxy-4-(trifluoromethyl)-1H-indole-2-carboxylic acid]
Ki (hLDH5 (LDH-A)): 1 to 10 µM | IC50 (A549 cells): ≤ 31 µM

COC(=O)c1cc2c(C(F)(F)F)cc(-c3ccccc3)cc2n1O[C@@H]1O[C@H](CO)[C@H](O)[C@@H](O)[C@H]1O [Example 40, methyl 1-(β-d-gulopyranosyl)oxy-6-phenyl-4-(trifluoromethyl)-1H-indole-2-carboxylate]
reduction of cellular production of lactate (HeLa cells): reduce effectively cellular production of lactate

COC(=O)c1cc2c(C(F)(F)F)cc(-c3cc(Cl)cc(Cl)c3)cc2n1O [Example 42, methyl 6-(3,5-dichlorophenyl)-1-hydroxy-4-(trifluoromethyl)-1H-indole-2-carboxylate]
Ki (hLDH5 (LDH-A)): 1 to 10 µM | IC50 (A549 cells): ≤ 31 µM | IC50 (H1975): ≤ 31 µM

CCCCOC(=O)c1cc2c(C(F)(F)F)cc(-c3ccc(Cl)cc3Cl)cc2n1O [Example 33, butyl 6-(2,4-dichlorophenyl)-1-hydroxy-4-(trifluoromethyl)-1H-indole-2-carboxylate]
IC50 (hLDH5 (LDH-A)): 0.01 to 1 µM | reduction of cellular production of lactate (HeLa cells): reduce effectively cellular production of lactate

CCCCOC(=O)c1cc2c(C(F)(F)F)cc(-c3ccccc3)cc2n1O [Example 22, butyl 1-hydroxy-6-phenyl-4-(trifluoromethyl)-1H-indole-2-carboxylate]
Ki (hLDH5 (LDH-A)): 0.5 to 5 µM | IC50 (A549 cells): ≤ 31 µM | IC50 (H1975): ≤ 31 µM | reduction of cellular production of lactate (HeLa cells): reduce effectively cellular production of lactate

COC(=O)c1cc2c(C(F)(F)F)cc(-c3cccc(OC(F)(F)F)c3)cc2n1O [Example 19, methyl 1-hydroxy-4-(trifluoromethyl)-6-(3-(trifluoromethoxy)phenyl)-1H-indole-2-carboxylate]
Ki (hLDH5 (LDH-A)): 1 to 10 µM | IC50 (A549 cells): ≤ 31 µM | IC50 (H1975): ≤ 31 µM

O=C(O)c1cc2c(C(F)(F)F)cc(-c3cccc(OC(F)(F)F)c3)cc2n1O [Example 25, 1-hydroxy-4-(trifluoromethyl)-6-(3-(trifluoromethoxy)phenyl)-1H-indole-2-carboxylic acid]
Ki (hLDH5 (LDH-A)): 1 to 10 µM | IC50 (A549 cells): ≤ 31 µM

O=C(O)c1cc2c(C(F)(F)F)cc(-c3ccccc3OC(F)(F)F)cc2n1O [Example 35, 1-hydroxy-6-(2-(trifluoromethoxy)phenyl)-4-(trifluoromethyl)-1H-indole-2-carboxylic acid]
Ki (hLDH5 (LDH-A)): 5 to 25 µM | IC50 (A549 cells): ≤ 31 µM | IC50 (H1975): ≤ 31 µM

CC(C)OC(=O)c1cc2c(C(F)(F)F)cc(-c3ccccc3)cc2n1O [Example 23, isopropyl 1-hydroxy-6-phenyl-4-(trifluoromethyl)-1H-indole-2-carboxylate]
Ki (hLDH5 (LDH-A)): 1 to 10 µM | IC50 (A549 cells): ≤ 31 µM | IC50 (H1975): ≤ 31 µM | reduction of cellular production of lactate (HeLa cells): reduce effectively cellular production of lactate

COC(=O)c1cc2c(C(F)(F)F)cc(-c3cc(Cl)ccc3Cl)cc2n1O [Example 38, methyl 6-(2,5-dichlorophenyl)-1-hydroxy-4-(trifluoromethyl)-1H-indole-2-carboxylate]
Ki (hLDH5 (LDH-A)): 5 to 25 µM | IC50 (A549 cells): ≤ 31 µM | IC50 (H1975): ≤ 31 µM

COC(=O)c1cc2c(F)cc(-c3ccc(Cl)cc3Cl)cc2n1O [Example 53, methyl 6-(2,4-dichlorophenyl)-4-fluoro-1-hydroxy-1H-indole-2-carboxylate]
Ki (hLDH5 (LDH-A)): 5 to 25 µM | IC50 (A549 cells): ≤ 31 µM | IC50 (H1975): ≤ 31 µM

CC(C)OC(=O)c1cc2c(C(F)(F)F)cc(-c3ccccc3)cc2n1O[C@@H]1O[C@H](CO)[C@@H](O)[C@H](O)[C@H]1O [Example 31, isopropyl 1-(β-D-glucopyranosyl)oxy-6-phenyl-4-(trifluoromethyl)-1H-indole-2-carboxylate]
IC50 (hLDH5 (LDH-A)): 50 to 500 µM | reduction of cellular production of lactate (HeLa cells): reduce effectively cellular production of lactate

COC(=O)c1cc2c(C(F)(F)F)cc(-c3cccc(Cl)c3Cl)cc2n1O [Example 36, methyl 6-(2,3-dichlorophenyl)-1-hydroxy-4-(trifluoromethyl)-1H-indole-2-carboxylate]
Ki (hLDH5 (LDH-A)): 1 to 10 µM | IC50 (A549 cells): ≤ 31 µM | IC50 (H1975): ≤ 31 µM

O=C(OCc1ccc(F)cc1)c1cc2c(C(F)(F)F)cc(-c3ccc(Cl)cc3Cl)cc2n1O [Example 62, 4-fluorobenzyl 6-(2,4-dichlorophenyl)-1-hydroxy-4-(trifluoromethyl)-1H-indole-2-carboxylate]
IC50 (hLDH5 (LDH-A)): 0.01 to 1 µM

O=C(OCc1ccccc1)c1cc2c(C(F)(F)F)cc(-c3ccccc3)cc2n1O [Example 48, benzyl 1-hydroxy-6-phenyl-4-(trifluoromethyl)-1H-indole-2-carboxylate]
Ki (hLDH5 (LDH-A)): 0.5 to 5 µM | IC50 (A549 cells): ≤ 31 µM | IC50 (H1975): ≤ 31 µM

CCOC(=O)c1cc2c(C(F)(F)F)cc(-c3ccc(Cl)cc3Cl)cc2n1O[C@@H]1O[C@H](CO)[C@@H](O)[C@H](O)[C@H]1O [Example 12, ethyl 6-(2,4-dichlorophenyl)-1-(β-D-glucopyranosyl)oxy-4-(trifluoromethyl)-1H-indole-2-carboxylate]
IC50 (hLDH5 (LDH-A)): 50 to 500 µM

CCCCOC(=O)c1cc2c(C(F)(F)F)cc(-c3ccc(Cl)cc3Cl)cc2n1O[C@@H]1O[C@H](CO)[C@@H](O)[C@H](O)[C@H]1O [Example 47, butyl 6-(2,4-dichlorophenyl)-1-(β-D-glucopyranosyl)oxy-4-(trifluoromethyl)-1H-indole-2-carboxylate]
IC50 (hLDH5 (LDH-A)): > 100 µM

O=C(O)c1cc2c(C(F)(F)F)cc(-c3cc(Cl)ccc3Cl)cc2n1O [Example 39, 6-(2,5-dichlorophenyl)-1-hydroxy-4-(trifluoromethyl)-1H-indole-2-carboxylic acid]
Ki (hLDH5 (LDH-A)): 5 to 25 µM

CN1CCC(OC(=O)c2cc3c(C(F)(F)F)cc(-c4ccccc4)cc3n2O)CC1 [Example 57, 1-methylpiperidin-4-yl 1-hydroxy-6-phenyl-4-(trifluoromethyl)-1H-indole-2-carboxylate]
IC50 (hLDH5 (LDH-A)): > 100 µM

O=C(OC1CCN(Cc2ccccc2)CC1)c1cc2c(C(F)(F)F)cc(-c3ccc(Cl)cc3Cl)cc2n1O [Example 59, 1-benzylpiperidin-4-yl 6-(2,4-dichlorophenyl)-1-hydroxy-4-(trifluoromethyl)-1H-indole-2-carboxylate]
IC50 (hLDH5 (LDH-A)): > 100 µM
